From BindingDB's records for doi:10.1016/j.bmcl.2020.126986 (Abbvie, 2020)

Legend:
[1] = Inhibition of NS5B polymerase in HCV genotype 1a H77 infected in human HuH7 replicon cells assessed as inhibition of viral replication after 3 days by luciferase reporter gene assay
[2] = Inhibition of NS5B polymerase in HCV genotype 1b Con1 infected in human HuH7 replicon cells assessed as inhibition of viral replication after 3 days by luciferase reporter gene assay

Row | EC50 [1] [µM] | EC50 [2] [µM] | SMILES
1 | 0.114 | 0.147 | CC(C)OC(=O)[C@H](C)N[P@](=O)(OC[C@H]1O[C@@H](n2ccc(=O)[nH]c2=O)[C@](Cl)(Br)[C@@H]1O)Oc1ccccc1
2 | 0.415 | 0.515 | CC(C)OC(=O)[C@H](C)N[P@@](=O)(OC[C@H]1O[C@@H](n2ccc(=O)[nH]c2=O)[C@](Cl)(Br)[C@@H]1O)Oc1ccccc1
3 | 0.156 | 0.167 | CC(C)OC(=O)[C@H](C)N[P@](=O)(OC[C@H]1O[C@@H](n2ccc(=O)[nH]c2=O)[C@](Cl)(Br)[C@@H]1OC(=O)[C@@H](N)C(C)C)Oc1ccccc1
4 | 0.106 | 0.139 | CC(C)OC(=O)[C@H](C)N[P@](=O)(OC[C@H]1O[C@@H](n2ccc(=O)[nH]c2=O)[C@](Cl)(Br)[C@@H]1O)Oc1cccc2ccccc12
5 | 0.094 | 0.099 | CC(C)OC(=O)[C@H](C)N[P@](=O)(OC[C@H]1O[C@@H](n2ccc(=O)[nH]c2=O)[C@](Cl)(Br)[C@@H]1OC(=O)[C@@H](N)C(C)C)Oc1cccc2ccccc12
6 | 0.098 | 0.127 | COc1cccc(O[P@](=O)(N[C@@H](C)C(=O)OC(C)C)OC[C@H]2O[C@@H](n3ccc(=O)[nH]c3=O)[C@](Cl)(Br)[C@@H]2O)c1
7 | 0.298 | 0.301 | CCOC(=O)[C@H](C)N[P@](=O)(OC[C@H]1O[C@@H](n2ccc(=O)[nH]c2=O)[C@](Cl)(Br)[C@@H]1O)Oc1ccccc1
8 | 1.21 | 1.19 | CCOC(=O)[C@H](C)N[P@@](=O)(OC[C@H]1O[C@@H](n2ccc(=O)[nH]c2=O)[C@](Cl)(Br)[C@@H]1O)Oc1ccccc1
9 | 0.414 | 0.387 | COCC(C)OC(=O)[C@H](C)NP(=O)(OC[C@H]1O[C@@H](n2ccc(=O)[nH]c2=O)[C@](Cl)(Br)[C@@H]1O)Oc1ccccc1 (stereo partly drawn)
10 | 0.317 | 0.455 | CC(C)C(=O)OC[C@H](C)NP(=O)(OC[C@H]1O[C@@H](n2ccc(=O)[nH]c2=O)[C@](Cl)(Br)[C@@H]1O)Oc1ccccc1 (stereo partly drawn)
11 | 0.592 | 0.522 | COCC(C)C(=O)OC[C@H](C)NP(=O)(OC[C@H]1O[C@@H](n2ccc(=O)[nH]c2=O)[C@](Cl)(Br)[C@@H]1O)Oc1ccccc1 (stereo partly drawn)
12 | 2.5 | 3.04 | COCC(=O)OC[C@H](C)NP(=O)(OC[C@H]1O[C@@H](n2ccc(=O)[nH]c2=O)[C@](Cl)(Br)[C@@H]1O)Oc1ccccc1 (stereo partly drawn)
13 | 1.09 | 1.38 | CC(C)OC(=O)C(C)(C)NP(=O)(OC[C@H]1O[C@@H](n2ccc(=O)[nH]c2=O)[C@](Cl)(Br)[C@@H]1O)Oc1ccccc1 (stereo partly drawn)

Row | SMILES | EC50 [1] [µM] | EC50 [2] [µM]
14 | CCOC(=O)C(C)(C)NP(=O)(OC[C@H]1O[C@@H](n2ccc(=O)[nH]c2=O)[C@](Cl)(Br)[C@@H]1O)Oc1ccccc1 (stereo partly drawn) | 0.96 | 1.17
